Data reported in US10160705B2, “Class of HDAC inhibitors expands the renal progenitor cells population and improves the rate of recovery from acute kidney injury” (University of Pittsburgh—Of the Commonwealth System of …, priority 2011, dated 2018).
Like-named read-outs stand apart in the source and are kept apart here.

What was measured:
[1] = system: renal progenitor cells; assay: In situ hybridization for lhx1a expression in 10-somite embryos (renal progenitor cell expansion); format: in vivo; conditions: for Lhx1a expansion caused by analog treatment, 200 nM: 200 nM from 2 hpf; for Lhx1a expansion caused by analog treatment, 400 nM: 400 nM from 2 hpf; for Lhx1a expansion caused by analog treatment, 800 nM: 800 nM from 2 hpf; for responders at 1.5 µM / responders at 0.2 µM / responders at 3 µM / responders at 0.4 µM / responders at 0.8 µM / EC50: Danio rerio; for responders at 0.2 µM: 200 nM, read-out: Expansion of Cells (including repeats* and recounts**) 200 nM; for EC50: first pass EC50 from percent expansion (Excel trendline), average where several experiments
Protocol: PTBA was synthesized as described below. Hydroxyurea and aphidicolin were obtained from Sigma-Aldrich.
In situ hybridization and immunocytochemistry: In situ hybridization was performed as previously described with some modifications.142 Hybridization temperature was 65° C. Embryos were blocked in 2% blocking reagent (Roche) with 5% sheep serum in MAB (100 mM maleic acid and 150 mM NaCl [pH 7.5]). Whole-mount immunocytochemistry with 1:25 mouse anti-α6F antibody (Developmental Studies Hybridoma Bank) and 1:100 Cy3 secondary antibody (Jackson ImmunoResearch) was performed as described previously.108 Embryos were embedded in JB-4 for sectioning per the manufacturer's instructions (Polysciences), sectioned at 5 μm, and mounted with Cytoseal 60 (Richard-Allan Scientific).
The remaining PTBA analogs were synthesized.
In situ hybridization for lhx1a was performed as described above. […] Compounds were classified as effective, partially-effective or ineffective based on comparison to the effects of PTBA at a given concentration.
Testing of the compounds is on-going, but for those tested, Table 6 provides first pass EC50s based upon colormetric in situ hybridizations for the Lhx1a mRNA expression levels. After the procedure is run, in situ hybridization is done for the lhx1 mRNA expression and the number of embryos that show an expanded kidney field is manually counted to establish the percent of embryos showing expansion. Then the EC50 is determined by plotting the percent expansion in Excel, graphing the results and using the trendline function to determine the 50 percent point.

[2] = system: zebrafish embryos; assay: Phenotypic screen for edema and survival in zebrafish larvae at 72 hpf; conditions: for Dead / Edemic 1 (E1) / Edemic 2 (E2) / Edemic 3 (E3) / Wild-type (WT): number of larvae (of 36), 3 μM from 2 hpf, scored at 72 hpf
Protocol: The screen was performed in zebrafish embryos using the National Cancer Institute's Developmental Therapeutics Program (NCI/DTP) Diversity Set I. This library contains 1990 compounds selected by pharmacophore modeling to represent the more than 140,000 small molecules maintained in the NCI/DTP Open Repository. Compounds from the NCI/DTP Diversity Set I were diluted to 10 μM in E3 embryo medium (5 mM NaCl, 0.33 mM CaCl2, 0.33 mM MgSO4, and 0.17 mM KCl) in a final DMSO concentration of 0.5% and arrayed in 96-well plates. Beginning at approximately 2 hpf, embryos were transferred to each well in groups of five using a glass pipette. The plates were incubated at 28.5° C. for 70 hours. Individual wells were then scored for a dominant phenotype, representative of at least four of the five embryos. The primary objective was to identify compounds that caused edema in treated embryos at 72 hpf. Small molecules generating edema were retested once for verification, before obtaining additional compound from the NCI/DTP Open Repository.
PTBA was synthesized as described below. Hydroxyurea and aphidicolin were obtained from Sigma-Aldrich. Groups of 20 to 30 chorionated 2 hpf embryos were arrayed in individual wells of 12-well plates. E3 medium was removed with a glass pipette and replaced with 1.5 ml treatment solutions containing 0.5% DMSO in E3 with or without compound at the reported concentrations. Treatments for all studies were initiated at 2 hpf, except for the temporal studies (FIG. 6) and the HUA studies (FIG. 11). HUA studies were performed as described previously (Zhang, L., et al. Cell cycle progression is required for zebrafish somite morphogenesis but not segmentation clock function. Development 135, 2065-2070, (2008)), with the following modifications. HUA in 0.5% DMSO was added at early gastrulation (5 hpf) and PTBA was subsequently added at late gastrulation (8 hpf) to allow for penetration of the proliferation inhibitors. All embryos were incubated at 28.5° C. until the required developmental stage.
Following 70 hours of treatment (as described above), edemic phenotypes in 72 hpf larvae were scored using a phenotype-based classification system. Wild type: no visible edema or developmental delay. […] Significant effects (p<0.05) on survival were determined by two-tailed Fisher's exact test in comparison with the 0 μM PTBA treatment group.
PTBA and methyl-4-(phenylthio)butanoate were synthesized as described above. 4-(Naphthalen-2-ylthio)butanoic acid (NSC2733) and 3-(phenylthio)benzoic acid (NSC113994), were obtained from the NCI/DTP Open Repository. APHA compound 8, Apicidin, butanoic acid, PBA, 4-phenoxybutanoic acid, 5-phenylpentanoic acid, Scriptaid, TSA, and valproic acid were obtained from Sigma-Aldrich. MS-275 and SAHA were obtained from Cayman Chemical Co. 4-(phenylsulfonyl)butanoic acid was obtained from Matrix Scientific. Tubacin was a gift of Dr. Ralph Mazitschek of the Broad Institute (Cambridge, Mass.). The remaining PTBA analogs were synthesized. Three independent groups of 12 chorionated 2 hpf embryos were arrayed in individual wells of 24-well plates. E3 medium was removed with a glass pipette and replaced with 800 μl treatment solutions containing 0.5% DMSO in E3 with or without compound at the reported concentrations.
Phenotypic screening of PTBA analogs was performed identically to the concentration-response experiments detailed above. Embryos were treated with each PTBA analog from 2 to 72 hpf as described above.

[3] = 1.5 μM from 2 hpf, 10-somite embryos
[4] = 3 μM from 2 hpf, 10-somite embryos
[5] = 1.5 μM from 2 hpf, 10-somite embryos, read-out: lhx1a expansion, percent of treated embryos
[6] = percent of embryos with expanded kidney field
[7] = percent of embryos with expanded kidney field, 1.5 μM, read-out: Expansion of Cells (including repeats* and recounts**) 1.5 μM
[8] = percent of embryos with expanded kidney field, 3 μM, read-out: Expansion of Cells (including repeats* and recounts**) 3 μM
[9] = read-out: lhx1a expansion, percent of treated embryos, 400 nM from 2 hpf, 10-somite embryos
[10] = 3 μM from 2 hpf, 10-somite embryos, read-out: lhx1a expansion, percent of treated embryos
[11] = percent of embryos with expanded kidney field, 800 nM, read-out: Expansion of Cells (including repeats* and recounts**) 800 nM
[12] = percent of embryos with expanded kidney field, 400 nM, read-out: Expansion of Cells (including repeats* and recounts**) 400 nM

Row | Compound | Lhx1a expansion caused by analog treatment, 3 μM [1, 4] | responders at 0.2 µM [1, 6] [%] | responders at 1.5 µM [1, 7] [%] | responders at 3 µM [1, 8] [%] | EC50 [1] [µM] | Dead [2] | Edemic 1 (E1) [2] | Edemic 2 (E2) [2] | Edemic 3 (E3) [2] | Wild-type (WT) [2] | responders at 0.8 µM [1, 11] [%] | responders at 0.4 µM [1, 12] [%] | further results
1 | O=C(CCCSc1ccc(F)cc1)NO [UPHD-00029, 4-[(4-fluoro-phenyl)sulfanyl]-N-hydroxybutanamide] | + | 6 | 100 | 100 | 1.31 | 28 | 0 | 0 | 8 | 0 |  |  | Lhx1a expansion caused by analog treatment, 200 nM ([1]; 10-somite embryos): −; Lhx1a expansion caused by analog treatment, 400 nM ([1]; 10-somite embryos): +/−; Lhx1a expansion caused by analog treatment, 800 nM ([1]; 10-somite embryos): +; Lhx1a expansion caused by analog treatment, 1.5 μM [1, 3]: +; responders at 1.5 µM [1, 5]: 100%; responders at 0.4 µM [1, 9]: 35%; responders at 0.8 µM ([1]; read-out: lhx1a expansion, percent of treated embryos, 800 nM from 2 hpf, 10-somite embryos): 60%
2 | COC(=O)CCCSc1ccc(Cl)cc1 [UPHD-00021, methyl 4-[(4-chloro-phenyl)sulfanyl]butanoate] | + |  | 72 | 97 |  | 1 | 10 | 6 | 19 | 0 |  |  | Lhx1a expansion caused by analog treatment, 1.5 μM [1, 3]: +/−; responders at 1.5 µM [1, 5]: 72%
3 | CCCC(CCC)C(=O)O [valproic acid, reference compound] | +/− |  |  |  |  | 0 | 11 | 0 | 0 | 25 |  |  | responders at 3 µM [1, 10]: 20%
4 | O=C(CCCSc1ccc(Br)cc1)NO [VNK-I-292, 4-[(4-bromo-phenyl)sulfanyl]-N-hydroxybutanamide] | + |  |  |  |  | 0 | 23 | 12 | 0 | 1 |  |  | Lhx1a expansion caused by analog treatment, 1.5 μM [1, 3]: +/−; responders at 1.5 µM [1, 5]: 47%
5 | CCC(=O)CCCCC[C@@H]1NC(=O)[C@H]2CCCCN2C(=O)[C@H]([C@@H](C)CC)NC(=O)[C@H](Cc2cn(OC)c3ccccc23)NC1=O [apicidin, reference compound] |  |  |  |  |  | 36 | 0 | 0 | 0 | 0 |  |  | Lhx1a expansion caused by analog treatment, 200 nM ([1]; 10-somite embryos): −; Lhx1a expansion caused by analog treatment, 400 nM ([1]; 10-somite embryos): +/−; treated embryos killed ([1]; 800 nM): 69%; Lhx1a expansion caused by analog treatment, 800 nM ([1]; 10-somite embryos): XX^1; embryos surviving treatment ([1]; 800 nM, n=36): 31%; lethality before the 10-somite stage ([1]; 1.5 μM): lethal; lethality before the 10-somite stage ([1]; 3 μM): killed all treated embryos; responders at 0.4 µM [1, 9]: 22%
6 | O=C(O)CCCSc1ccc2ccccc2c1 [4-(naphthalen-2-ylthio)butanoic acid, 4-(Naphthalen-2-ylthio)butanoic acid, reference compound] | − |  |  |  |  | 2 | 9 | 0 | 0 | 25 |  |  | lhx1a expansion, percent of treated embryos ([1]; 3 μM from 2 hpf, 10-somite embryos, listed as 4-(napthalen-2-ylthio)butanoic acid): no expansion; responders at 3 µM [1, 10]: 33%
7 | O=C(CCCCCCC(=O)Nc1ccccc1)NO [SAHA, reference compound] | − |  |  |  |  | 0 | 0 | 0 | 0 | 36 |  |  | effect on zebrafish embryos in the phenotypic screen ([2]; 3 μM): no effect
8 | Nc1ccccc1NC(=O)CCCSc1ccccc1 [UPHD-00036, N-(2-aminophenyl)-4-(phenylsulfanyl)butanamide] |  |  | 85 | 100 |  |  |  |  |  |  | 45 |  | 
9 | Cn1c(SCCCCCC(=O)Nc2ccccc2N)nc2ccccc21 [UPHD-00081, N-(2-aminophenyl)-6-[(1-methyl-1H-1,3-benzodiazol-2-yl)sulfanyl]hexanamide] |  | 0 | 20 | 32 | > 3 |  |  |  |  |  | 10 | 10 | 
10 | O=C(CCCCCS(=O)(=O)c1ccc2ccccc2c1)NO [UPHD-00069, N-hydroxy-6-(naphthalene-2-sulfonyl)hexanamide] |  | 0 | 0 | 0 | > 3 |  |  |  |  |  | 0 | 0 | 
11 | O=C(CCCCCSc1nc2ccccc2s1)NO [UPHD-00070, 6-(1,3-benzothiazol-2-ylsulfanyl)-N-hydroxyhexanamide] |  | 0 | 0 | 0 | > 3 |  |  |  |  |  | 0 | 0 | 
12 | COC(=O)CCCCCCSc1ccccc1 [UPHD-00040, methyl 7-(phenylsulfanyl)heptanoate] |  |  | 15 | 45 | > 3 |  |  |  |  |  | 6 |  | 
13 | COC(=O)CCCCCSc1ncccn1 [UPHD-00058, methyl 6-(pyrimidin-2-ylsulfanyl)hexanoate] |  | 17 | 28 | 6 | > 3 |  |  |  |  |  | 20 | 33 | 
14 | O=C(NO)c1ccc(CCSc2ccc(F)cc2)cc1 [UPHD-00067, 4-{2[(4-fluoro-phenyl)sulfanyl]ethyl}-N-hydroxybenzamide] |  | 17 |  | 20 | 0.8 |  |  |  |  |  |  |  | 
15 | Nc1ccccc1NC(=O)CCCCCCSc1ccc(F)cc1 [UPHD-00043, N-(2-aminophenyl)-7-[(4-fluoro-phenyl)sulfanyl]heptanamide] |  | 0 |  | 57 | 3 |  |  |  |  |  |  | 15 | 
16 | O=C(CCCCCSc1ccc(F)cc1)NO [UPHD-00051, 6-[(4-fluoro-phenyl)sulfanyl]-N-hydroxyhexanamide] |  |  |  | 86.7 | 1.9 |  |  |  |  |  |  |  | 
